From patent publication US20040254131A1, “Method for prevention or treatment of diseases or disorders related to excessive formation of vascular tissue or blood vessels” (priority 2003, published 2004)

Columns and labels:
rat NPY Y2 mRNA = assay: Hyperoxia/ischemia-induced retinal neovascularization (retinopathy) in newborn rats; type: in vivo; details: for retinal capillary vessel formation in fluorescein images (FIG. 3): fluorescence microscopy of flat-mounted retinas; for Mean ± SD of quantitated neovascularization (amount of retinal vessels crossed by a constant length line): newborn Sprague Dawley rats, cyclic hyperoxia 40%/80% then room air, intraperitoneal treatment, eyes collected at age 20 days
Text: The present study was undertaken to determine the impact of NPY Y2 receptor targeted intervention on neovascularization and development of retinopathy. Development of retinopathy was induced to newborn rats by cyclic hyperoxia and following relative ischemia-induced retinal neovascularization. Hyperoxemia is toxic to developing retinal vessels causing damage and hypoxia in the retina. After moving to normal air, relative hypoxia follows further promoting neovascularization of the retina.
Three groups of rat puppies were subjected for different treatments; 1) vehicle, 2) NPY Y2 receptor targeted antisense oligonucleotide sequence, and 3) scramble oligonucleotide sequence containing the same oligonucleotides as NPY Y2 receptor targeted antisense oligonucleotide sequence. The treatments were administered intraperitoneally. The retinal vessels were investigated and retinopathic changes were compared between treatment groups.
Retinopathy was assessed after injection of fluorescent-labelled dextran to the circulation. The eyes were flat-mounted on slides and the retinal vessels were visualized and investigated by fluorescence microscopy. Statistical differences were calculated between the study groups.
Study protocol was approved by the Joint Ethics Committee of Turku University. Development of retinopathy was induced to newborn rats (Sprague Dawley) by cyclic hyperoxia and following relative ischemia. Hyperoxia is toxic to developing retinal vessels causing damage and hypoxia in the retina, which induces neovascularization. After moving to normal air, relative hypoxia follows further promoting neovascularization of the retina. Hypoxia is one of the major causes of retinal neovascularization in human retinopathies also. The newborn rats were kept in a hyperoxic incubator with their mothers. Retinal neovascularization was induced simultaneously for all three groups of puppies. One treatment group consisted originally of 7 puppies, which underwent cyclic hyperoxia at the age of 3 days, continued until at the age of 14 days and remained in normal room air from the age of 14 to 17 days. The amount of oxygen inside the incubator was kept at 40% and 80% in 12 hour cycles for 10 days (days from 3 to 13).
The three groups of puppies were subjected for different treatments; 1) plain vehicle, 2) NPY Y2 receptor targeted antisense oligodeoxynucleotide sequence (5′-CCTCTGCACCTAATGGGCCC -3′ (SEQ ID NO:38), containing 20 thioate modified bases) diluted in vehicle and 3) scramble oligodeoxynucleotide sequence containing the same deoxynucleotides as NPY Y2 receptor targeted antisense oligodeoxynucleotide sequence but in a random order (5′-CCATGGTAATCCGCCGCTCC-3′ (SEQ ID NO:39), containing 20 thioate modified bases) diluted in vehicle. The treatments were administered intraperitoneally. The retinal vessels were investigated and retinopathic changes were compared between treatment groups. The used NPY Y2 receptor targeted antisense deoxynucleotide sequence was designed complementary to next 20 bases from NPY Y2 gene transcription initiation codon (ATG).
At the age of 20 days, rats were decapitated and eyes were collected. Retinopathy and retinal neovascularization was assessed after an injection of fluorescent-labelled dextran to the circulation trough heart puncture. One eye from each puppy was used for visualization of retinal vessels. The eyes were flat-mounted on slides and the retinal vessels were visualized and investigated by fluorescence microscopy. Pictures of retinas were acquired using a Leica DMR/DC100 microscope and Leica DC Wiever software.
The amount of retinal capillaries was analyzed by counting the amount of vessels crossed by a constant length line using plot profile analysis (Image-J 2.6 program). Each retina was analyzed in 3-5 representative areas and the mean values were used for further statistical analysis. Only unfolded retinal preparations were used in order to avoid artificial images of neovascularization. […]

hTERT-HUVEC cells = assay: Endothelial tube formation assay after liposomal transfection; type: cell-based, human; details: for mean ±SEM tube number/well, single nucleotide assay 4A / mean ±SEM tube number/well, single nucleotide assay 4b: oligonucleotide 1 μM, DOTAP/DOPE, 4 h transfection, 3 h on Matrigel; for mean ±SEM tube number/well, single nucleotide assay 4A: non-treated control 60±1.8; for mean ±SEM tube number/well, single nucleotide assay 4b: repeated set, non-treated control 58.0±2.9
Procedure: A further experiment was carried out in order to study the effect of single antisense molecules and their combinations in the prevention of endothelial cell tube formation by immortal human umbilical vein endothelial cells (hTERT-HUVECs).
Immortal human umbilical vein endothelial cells (hTERT-HUVECs) were obtained from Geron Corporation (Menlo Park, Calif., U.S.A.). hTERT-HUVECs were maintained on a gelatin-coated 100-mm dishes (Corning Costar, N.Y., U.S.A) in growth medium, composed of M199 medium (Gibco, Paisley, Scotland) supplement with 15% (v/v) heat-inactivated fetal bovine serum (Gibco BRL), 2 mM L-glutamine (Gibco BRL), 100 units/ml penicillin/streptomycin (Gibco BRL), 10 units/ml heparin (Sigma) and 20 μg/ml endothelial cell growth factor (Roche Biomolecules) at 37° C. in a humified incubator with 5% CO2 atmosphere. Experiments were performed with cells between passages 20 and 24.
The following phosphorothioate oligonucleotides were synthesized: human neuropeptide Y2-receptor mRNA antisense molecules
N-(1-(2,3-dioleoyloxy)propyl)-N,N,N-trimethyl ammonium methylsulfate (DOTAP) and 1,2-dioleoyl-3-phosphatidylethanolamine (DOPE) were purchased from Avanti Polar Lipids. Cationic liposomes composed of DOTAP/DOPE (1:1 by mol) were prepared as previously described (Ruponen et al., 2001 (43)).
hTERT-HUVECs (5×10^4 cells/well) were seeded onto gelatin-coated 48-multiwell plates (Corning Costar, N.Y., U.S.A) and incubated overnight. For transfection, the growth medium was replaced with 400 μl of transfection medium (M199 medium supplement with 2 mM L-glutamine and 100 units/ml penicillin/streptomycin). Oligonucleotides (final concentration 1 μM) and DOTAP/DOPE liposomes in sterile water were first diluted in MES-HEPES buffered saline (50 mM MES, 50 mM HEPES, 75 mM NaCl, pH 7.2) and then mixed together at a charge ratio +1. The transfection mixture was allowed to stand at room temperature for 20 min and the oligonucleotide/liposome complexes (100 μl) were added dropwise to each well.
After transfection for 4 h hTERT-HUVECs were harvested after trypsin treatment, suspended in growth medium (200 μl) and seeded in growth factor-reduced Matrigel (BD Biosciences) coated 96-well plates (Corning Costar, N.Y., U.S.A). After incubation for 3 h cells were fixed in 4% paraformaldehyde. The formation of tubular structures in each well (7 fields/well) was digitally captured using a Nicon Eclipse TE300 Inverted Microscope (Nicon, Tokyo, Japan) equipped with a Nicon F-601 digital camera (Nicon, Tokyo, Japan). Photographs were taken at 4× magnification.
The efficacy in prevention of formation of tubular structures by hTERT-HUVECs of all 5 synthesized antisense molecules were compared against each others alone and in combination. The number of tubular structures was analyzed by using Adobe Photoshop 5.5 (Adobe Systems Inc., San Jose, Calif., U.S.A) and the results were expressed as means ±SEM of three independent experiments. A set of three experiments was repeated.

Substance	retinal capillary vessel formation in fluorescein images (FIG. 3) (rat NPY Y2 mRNA)	Mean ± SD of quantitated neovascularization (amount of retinal vessels crossed by a constant length line) (rat NPY Y2 mRNA)	mean ±SEM tube number/well, single nucleotide assay 4A (hTERT-HUVEC cells) [tube number/well]	mean ±SEM tube number/well, single nucleotide assay 4b (hTERT-HUVEC cells) [tube number/well]	other results
5′-CCATGGTAATCCGCCGCTCC-3′ (CCATGGTAATCCGCCGCTCC; DNA, all phosphorothioate, methylation of C not given here; listed as Rattus sp.) [Scramble, scramble oligodeoxynucleotide, same deoxynucleotides as the Y2 antisense in random order, reference compound]	irregular and disrupted	31.12 ± 0.93			difference in retinal neovascularization versus vehicle treatment group (rat NPY Y2 mRNA; post hoc comparison): no difference
5′-CCCAGGTTATCCACGTCTCC-3′ (DNA, all phosphorothioate, methylation of C not given here; listed as Homo sapiens) [AS-1 control, control oligonucleotide for AS-1, reference compound]			49.3±8.2	57.0±7.0	
5′-CCTCTGCACCTATTGGACCC-3′ (DNA, all phosphorothioate, methylation of C not given here; listed as Homo sapiens) [AS-1, human neuropeptide Y2-receptor mRNA antisense molecule]			44.0±5.6	54.3±10.1	
5′-GGCCACTGTTCTTTCTGACC-3′ (DNA, all phosphorothioate, methylation of C not given here; listed as Homo sapiens) [AS-3, human neuropeptide Y2-receptor mRNA antisense molecule]			28±7.1	23.0±6.7	efficacy in prevention of tubular structures formation by hTERT-HUVECs (ranking in words) (hTERT-HUVEC cells; FIGS. 4A-4D): best efficacy
5′-GTTTGTGGCCCGTATTGTTCC-3′ (DNA, all phosphorothioate, methylation of C not given here; listed as Homo sapiens) [AS-2, human neuropeptide Y2-receptor mRNA antisense molecule]			70.3±11.3	75.0±7.5	
5′-CCTCTGCACCTAATGGGCCC -3′ (antisense CCTCTGCACCTAATGGGCCC; DNA, all phosphorothioate, methylation of C not given here; listed as Rattus sp.) [Y2-antisense, NPY Y2 receptor targeted antisense oligodeoxynucleotide corresponding to rat NPY Y2 mRNA]	regular and continuous	24.58 ± 0.84			mean difference in neovascularization compared to vehicle treatment group (rat NPY Y2 mRNA; post hoc Tukey HSD, p<0.001, 95% CI 2.48-8.33): 5.40; mean difference in neovascularization compared to scramble treatment group (rat NPY Y2 mRNA; post hoc Tukey HSD, p<0.001, 95% CI 3.76-9.31): 6.53
